Assay results published in patent US20230227477A1, “COMPOUNDS FOR SENSING REACTIVE OXYGEN SPECIES AND METHODS FOR USING THE SAME” (WAKE FOREST UNIVERSITY HEALTH SCIENCES, priority 2020, published 2023).

What was measured:
[1] = Rate of coumarin release from compound 1a with H2O2 (fluorescence, plate reader); format: physicochemical; details: 20 μM compound 1a, 1000 μM H2O2, PBS pH 7.4, 37° C.
Description: Referring to FIG. 2A, initially appending a coumarin ester to the H2O2-responsive scaffold of compound 1a, it was hypothesized that the release of payload, in response to H2O2, could be monitored via fluorescence spectroscopy while recording the resulting increase in fluorescence intensity upon excitation at 7-hydroxycoumarin's λmax. Therefore, to initially assess the reactivity of the scaffold towards peroxides, compound 1a (20 μM) and H2O2 (1000 μM) was incubated in PBS buffer (pH 7.4) at 37° C. Specifically, immediately prior to use, a 5 mM stock solution of hydrogen peroxide was prepared in freshly degassed 1× PBS buffer (pH 7.4) using reagent grade H2O2 (30% solution). A 200 μM stock solution of probe compound 1a was prepared in 200-proof ethanol. The rate of coumarin release was measured using concentrations of 20 μM compound 1a and 1000 μM H2O2 by adding 30 μL of the probe stock solution, 60 μL of hydrogen peroxide stock solution and 210 μL of PBS buffer (pH 7.4) to each well of a 96 well plate. The plate was inserted into a 96-well plate reader (BioTek SYNERGY-HTX hybrid multi-mode reader, Winooski, Vt.), heated to 37° C., and agitated to ensure homogeneity. The plate was read continuously using a 360/40 nm fluorescence filter and values were recorded as the mean+/−STDEV from three experiments.
To further establish the proposed mechanistic pathway, lactone compound 3 (see FIG. 2A) was isolated and characterized as a definitive byproduct of this transformation. […] Compound 3 was formed as described below.

[2] = Turn-on fluorescence response of compounds 1a, 1b, 1c in PBS buffer alone and with H2O2; format: physicochemical; details: for turn-on fluorescence response towards H2O2 (in words) / fluorescence (ex: 330 nm, em: 452 nm), in the presence of 1 mM H2O2 / fluorescence (ex: 330 nm, em: 452 nm), PBS Buffer alone: 20 μM probe; for turn-on fluorescence response towards H2O2 (in words): 1 mM H2O2 vs PBS alone, 3 h; for fluorescence (ex: 330 nm, em: 452 nm), in the presence of 1 mM H2O2 / fluorescence (ex: 330 nm, em: 452 nm), PBS Buffer alone: PBS pH 7.4, 37° C., 180 min; for fluorescence (ex: 330 nm, em: 452 nm), PBS Buffer alone: no H2O2
Description: Stock solutions of each probe (compounds 1a, 1b, 1c) at 222.2 μM were prepared in 200-proof ethanol. In addition, a 100 mM hydrogen peroxide stock solution was prepared in freshly degassed 1× PBS buffer (pH 7.4) immediately prior to use. Each reaction vial was prepared using 21.6 mL of PBS buffer, 2160 μL of compound 1a (or compound 1b or 1c) stock solution, and 240 μL of 100 mM hydrogen peroxide stock solution to give final concentrations of 20 μM of compound 1a (or compound 1b or 1c) and 1 mM of hydrogen peroxide. A control sample was prepared using 2160 μL of compound 1a (or 1b or 1c) stock solution in ethanol and diluted with 21.84 mL of freshly degassed 1× PBS buffer to give a final concentration of 20 μM of compound 1a (or 1b or 1c). The reaction and control vials were heated to 37° C. and agitated with a stir bar. At 180 min, 4 mL aliquots were transferred from reaction and control vials to individual quartz cuvettes. Fluorescence measurements (ex: 330 nm, em: 452 nm) were recorded as the mean+/−STDEV from three experiments. Referring to FIG. 3, the results for each of compounds 1a, 1b, and 1c was as follows—(1a): (1) PBS Buffer alone: 3.85+/−0.58; (2) In the presence of 1 mM H2O2: 97.01+/−12.97. (1b): (1) PBS Buffer alone: 0.55+/−0.27; (2) In the presence of 1 mM H2O2: 8.14+/−3.13. (1c): (1) PBS Buffer alone: 102.35+/−0.73; (2) In the presence of 1 mM H2O2: 129.54+/−0.55.

[3] = Persulfide release from compounds 4a and 4b with H2O2 monitored by fluorescence; format: physicochemical; details: 20 μM compound; for change of relative fluorescence intensity over time with H2O2 (in words): 200 μM H2O2, PBS pH 7.4, 37° C., 3 hours
Description: Referring to FIGS. 6A and 6B, compounds 4a and 4b (20 μM) were exposed to H2O2 (200 μM) in PBS buffer (pH 7.4) at 37° C. and the resulting fluorescence intensity was monitored over a period of 3 hours. Immediately prior to use, a 200 μM stock solutions of compound 4a and compound 4b were prepared in cell-grade dimethylsulfoxide (DMSO), and a 200 μM stock of cetyltrimethylammonium bromide (CTAB) was prepared in PBS buffer (pH 7.4). Next, a 2 mM hydrogen peroxide stock solution was prepared by diluting 30% hydrogen peroxide in freshly degassed PBS Buffer (pH 7.4). 30 μL of compound 4a (or compound 4b) was then added to a 96 well plate and diluted with 90 μL of PBS buffer and 150 μL of the CTAB stock solution. The assay was then initiated by the addition of 30 μL, of the 2 mM hydrogen peroxide stock solution rendering a final concentration of 20 μM for compound 4a (or compound 4b), 200 μM of hydrogen peroxide, and 100 μM of CTAB. The control reactions without peroxide were conducted by adding 30 μL of the 200 μM stock of compound 4a to a 96 well plate and diluting with 120 μL of PBS buffer and 150 μL of 200 μM CTAB to make a final concentration of 20 μM of compound 4a and 100 μM of CTAB. The plate was inserted into a 96-well plate reader (BioTek SYNERGY-HTX multi-mode reader, Winooski, Vt.) heated to 37° C., and agitated to ensure homogeneity. The plate was read continuously using a 360/40 nm fluorescence filter and values were recorded as the mean+/−STDEV from three experiments.

[4] = DNFB trapping of released persulfide, LCMS (validation as ROS-activated persulfide donor); format: physicochemical; details: 200 μM compound, 1 mM DNFB, 1 mM H2O2, ammonium bicarbonate buffer, room temperature
Description: Initially, 5 mM stock solutions of compound RAH393, compound 5, and 2,4-dinitrofluorobenzene (DNFB) were prepared in 200-proof ethanol. In addition, a 100 mM stock solution of hydrogen peroxide in ammonium bicarbonate buffer (1 mM, pH 7.0) was prepared immediately prior to use. To a conical vial containing 1500 μL of 1M ammonium bicarbonate was then added 80 μL of the 5 mM stock of compound RAH393 (or control compound 5), 400 μL of the 5 mM DNFB stock, and 20 μL of 100 mM hydrogen peroxide giving a final concentrations of 200 μM compound RAH393 (or compound 5), 1 mM DNFB, and 1 mM H2O2. At the designated timepoints, a 100 μL aliquot of the room-temperature reaction was diluted with 900 μL of HPLC-grade methanol with 0.1% formic acid for analysis. 75 μL of the resultant solution was then injected onto C18 reverse phase column (Agilent Technologies, SB-C18 Analytical HPLC Col. 4.6×150) and eluted with HPLC-grade methanol (0.1% formic acid) and HPLC-grade water (0.1% formic acid) at a flow rate of 200 μL/min using the following gradient: 0-2 min, 90:10 water:methanol; 2-8 min, 40:60 water:methanol; 8-30 min, 10:90 water:methanol; 30-40 min, 5:95 water:methanol. Retention times of lactone compound 3 (25.0 min), compound RAH393 (35.6 min), compound 5 (27.7 min), and DNFB (16.5 min) were independently validated. When this assay was run using compound RAH393, in addition to compound 7 (21.7 min), the tri- and tetrasulfides of N-acetylcysteamine were also present (14.1 min and 16.2 min, respectively), further confirming persulfide release from compound RAH393.

HeLa cells [5] = assay: Protective effects on HeLa cells under H2O2-induced oxidative stress (CCK-8 viability); format: cell-based, human
Description: Next, the protective effects of compound RAH393 on cultured HeLa cells which were under oxidative stress were examined. A population of cells (>6×10^6 cells/mL as determined with a hemocytometer) was diluted with FBS-free DMEM:F12-K, 1:1, 1% penicillin-streptomycin, and 1% L-glutamine to give a final concentration of 50,000 cells/mL. To a 96-well plate was added 100 μL of cell media solution resulting in a total of 5 k cells per well. Plates were then incubated at 37° C. in an atmosphere of 5% CO2 and 95% humidified air for 24 h. Confluent cells were then pre-incubated in FBS-free media with compound RAH393 (or compound 5) (200 μM) for 1 h followed by treatment with H2O2 (200 μM) for an additional 1 h incubation period. Control wells with H2O2 alone (200 μM) were also evaluated on the same plate. After a total incubation period of 2 h, cell contents were then replaced with 100 μL of fresh FBS-free media with 10% CCK-8. Cells were then incubated for 3 h at 37° C. and cell viability was assessed by measuring the resulting absorbance at 450 nm using a 96-well plate reader (BioTek SYNERGY-HTX multi-mode reader, Winooski, Vt.).

HeLa cells [6] = assay: Cytotoxicity in HeLa cells (phosphatase assay); format: cell-based, human; details: various concentrations, 5 h incubation
Description: First, compound RAH393 and lactone compound 3 were tested for cytotoxicity in HeLa cells. A population of cells (>6×10^6 cells/mL as determined with a hemocytometer) was diluted with FBS-free DMEM:F12-K, 1:1, 1% penicillin-streptomycin, and 1% L-glutamine to give a final concentration of 50,000 cells/mL. To a 96-well plate was added 100 μL of cell media solution resulting in a total of 5 k cells per well. Plates were then incubated at 37° C. in an atmosphere of 5% CO2 and 95% humidified air for 24 h. Fresh culture media (100 μL) was then added to each well of cells resulting in 200 μL of media per well followed by the addition of compound RAH393 or compound 3 at various concentrations (20 mM stock in biological-grade DMSO, resulting in no more than 1% DMSO per well). After incubating for 5 h, a phosphatase assay was used to establish cell viability as follows: Media was removed from each well and replaced with 100 μL of phosphatase solution (100 mg of phosphatase substrate, in 30 mL of 0.1 M NaOAc, pH 5.5, 0.1% Triton X-100 buffer). Following an incubation period of 30 min, 50 μL of 0.10 M NaOH was added to each well and viability was assessed spectrophotometrically at 405 nm using a 96-well plate reader (BioTek SYNERGY-HTX multi-mode reader, Winooski, Vt.). Assays were performed in triplicate and presented as the mean+/−STDEV.

CC(C)(Cc1ccccc1B1OC(C)(C)C(C)(C)O1)C(=O)Oc1ccc2ccc(=O)oc2c1 [compound 1a]
time at which fluorescence intensity reached a maximum (complete release of coumarin reporter) [1]: roughly 1 h
kobs ([1]; pseudo first-order): 0.024 min⁻¹
half-life at 20 μM ([1]; PBS buffer with 1000 μM H2O2, pseudo first-order, read-out: half-life (t1/2) of reaction with H2O2): 29.3 min
turn-on fluorescence response towards H2O2 (in words) [2]: selective turn-on fluorescence response towards H2O2
fluorescence (ex: 330 nm, em: 452 nm), in the presence of 1 mM H2O2 [2]: 97.01+/−12.97
fluorescence (ex: 330 nm, em: 452 nm), PBS Buffer alone [2]: 3.85+/−0.58

CC(C)(Cc1ccccc1B1OC(C)(C)C(C)(C)O1)C(=O)SSc1ccccc1C(=O)Oc1ccc2ccc(=O)oc2c1 [compound 4a]
kobs (pseudo first-order rate constant) ([3]; 200 μM H2O2, 100 μM CTAB, PBS pH 7.4, 37° C.): 0.012 min⁻¹
change of relative fluorescence intensity over time with H2O2 (in words) [3]: significantly increase over time
fluorescence profile in PBS buffer alone (in words) ([3]; no H2O2, 100 μM CTAB, 37° C.): nearly identical fluorescence profile to that of compound 4b
half-life at 20 μM ([3]; PBS buffer with 200 μM H2O2 and 100 μM CTAB, 200 μM H2O2, 100 μM CTAB, PBS pH 7.4, 37° C., pseudo first-order, read-out: half-life of reaction with H2O2 (persulfide release)): 60.5 min

CC(C)(Cc1ccccc1)C(=O)Oc1ccc2ccc(=O)oc2c1 [compound 1b]
turn-on fluorescence response towards H2O2 (in words) [2]: no turn-on response
fluorescence (ex: 330 nm, em: 452 nm), in the presence of 1 mM H2O2 [2]: 8.14+/−3.13
fluorescence (ex: 330 nm, em: 452 nm), PBS Buffer alone [2]: 0.55+/−0.27

CC1(C)OB(c2ccccc2CCC(=O)Oc2ccc3ccc(=O)oc3c2)OC1(C)C [compound 1c]
fluorescence (ex: 330 nm, em: 452 nm), in the presence of 1 mM H2O2 [2]: 129.54+/−0.55
fluorescence (ex: 330 nm, em: 452 nm), PBS Buffer alone [2]: 102.35+/−0.73
susceptibility to hydrolysis (in words) ([2]; PBS buffer alone, pH 7.4, 37° C.): highly susceptible to hydrolysis

CC(=O)NCCSSC(=O)C(C)(C)Cc1ccccc1 [compound 5]
formation of trapped disulfide compound 7 (persulfide release), LCMS [4]: unsuccessful in yielding compound 7
protection against H2O2-induced oxidative stress (in words) (HeLa cells [5]; pre-treatment 200 μM compound 1 h, then 200 μM H2O2 1 h): no protection

OO [H2O2, hydrogen peroxide, reference compound]
cell viability (HeLa cells [5]; 200 μM H2O2 alone, 1 hour): 33%

CC(C)(Cc1ccccc1)C(=O)SSc1ccccc1C(=O)Oc1ccc2ccc(=O)oc2c1 [compound 4b]
change of relative fluorescence intensity over time with H2O2 (in words) [3]: trivial

CC1(C)Cc2ccccc2OC1=O [compound 3]
cytotoxicity toward HeLa cells (in words) (HeLa cells [6]): neither compound RAH393 nor lactone compound 3 were toxic
